Test results reported in article PMC6327999, “Hydroxyl-substituted double Schiff-base condensed 4-piperidone/cyclohexanones as potential anticancer agents with biological evaluation” (Journal of Enzyme Inhibition and Medicinal Chemistry, 2019).
Where two headings read alike, the source gives them in different places.

What was measured:
Assay type in all cases: cell-based
[1] = test system: human carcinoma cell lines A549, SGC7901, HePG2, HeLa, K562, THP-1; assay: Cytotoxicity, MTT assay, panel of human carcinoma cell lines (average / overall); conditions: for IC50: Homo sapiens
Text: (§1) Compounds 2a–d, 3a–e, 4a–e, 5a–d, and 6a–c were screened against human neoplastic cell lines such as human lung carcinoma cells (A549), human gastric adenocarcinoma cells (SGC7901), human cervical carcinoma cells (HeLa), human liver hepatocellular carcinoma cell line (Hepg2), human chronic myelogenous leukemia cell line (K562), human acute mononuclear granulocyte leukemia (THP-1), human normal heptical cell line (LO2) (Table 1) using modified MTT assay (3-(4,5-dimethyl-2-thiazolyl)-2,5-diphenyl-2-H-tetrazolium bromide, MTT, Dojindo Laboratories, Tokyo, Japan). All cell lines were maintained at 37 °C in a humidified 5% CO2 and 95% air atmosphere. The HePG2 cell lines were cultured in DMEM containing 10% fetal bovine serum. Other cell lines were grown in medium 1640 and supplemented with 10% fetal bovine serum. […] Controls were prepared with 0.1% DMSO (v/v) only. The cells were seeded in a 96-well plate in 200 µL medium per well at a density of 1 × 10^4 cells/well for 24 hours. The cells were treated with serial concentrations of compound and incubated for 24 hours. Cells with only culture media were used as control. After the media was removed, 20 µL of MTT (5 mg/mL) was added then the plates were incubated for 4 hours at 37 °C in cell culture incubator. The MTT containing media were removed and then 150 µL of DMSO was added to dissolve the dark-blue formazan crystals. The optical density (OD) was measured by a multi-well plate reader (TECAN, Männedorf, Switzerland) at 570 nm. The results are expressed as a decrease in the cell viability (%) in comparison to untreated controls. The concentration of each compound was examined in triplicate, and the IC50 values are expressed in Table 1. The concentrations of the compounds were 50, 20, 10, 5, 2.5, 1, 0.5, 0.1, 0.05 and 0.01 µg/mL. Doxorubicin (DOX) and Curcumin were used as positive controls. […] The concentrations of curcumin used were 100, 50, 25, 12.5, 6.25, 3.125, 1, 0.5 and 0.1 µg/mL.
The cytotoxicity activities against human carcinoma cell lines A549, SGC7901, HePG2, HeLa, K562, THP-1 and cytotoxicity toward LO2 cell lines were evaluated by MTT method. DOX and curcumin were used as positive control. The selectivity index (SI) is the quotient of the IC50 values towards nonmalignant LO2 cells. […] Especially for 4a–e, 5a–d, and 6a–c, this ratio can reach about 92%.

[2] = test system: human gastric adenocarcinoma cells (SGC7901); assay: Cytotoxicity, MTT assay, SGC7901; conditions: for IC50: Homo sapiens, SGC-7901, MTT, 24 hours; for SGC7901 SI: quotient of the IC50 values towards nonmalignant LO2 cells
Text: as §1

[3] = test system: human normal heptical cell line (LO2); assay: Cytotoxicity, MTT assay, non-malignant LO2; conditions: 24 hours, non-malignant cells
Text: as §1

[4] = test system: human cervical carcinoma cells (HeLa); assay: Cytotoxicity, MTT assay, HeLa; conditions: for IC50: Homo sapiens, HeLa, MTT, 24 hours; for HeLa SI: quotient of the IC50 values towards nonmalignant LO2 cells
Text: as §1

[5] = test system: human acute mononuclear granulocyte leukemia (THP-1); assay: Cytotoxicity, MTT assay, THP-1; conditions: for IC50: Homo sapiens, THP-1, MTT, 24 hours; for THP-1 SI: quotient of the IC50 values towards nonmalignant LO2 cells
Text: as §1

[6] = test system: human chronic myelogenous leukemia cell line (K562); assay: Cytotoxicity, MTT assay, K562; conditions: for IC50: Homo sapiens, K562, MTT, 24 hours; for K562 SI: quotient of the IC50 values towards nonmalignant LO2 cells
Text: as §1

[7] = test system: human lung carcinoma cells (A549); assay: Cytotoxicity, MTT assay, A549; conditions: for IC50: Homo sapiens, A549, MTT, 24 hours; for A549 SI: quotient of the IC50 values towards nonmalignant LO2 cells
Text: as §1

[8] = test system: human liver hepatocellular carcinoma cell line (Hepg2); assay: Cytotoxicity, MTT assay, HePG2; conditions: for IC50: Homo sapiens, HepG2, MTT, 24 hours; for HePG2 SI: quotient of the IC50 values towards nonmalignant LO2 cells
Text: as §1, with “µg/mL.” for “µg/mL. Doxorubicin (DOX) and Curcumin were used as positive controls.”

[9] = average over the six carcinoma cell lines, read-out: Ave IC50
[10] = average over the six carcinoma cell lines

Structure (SMILES) | IC50 [1, 9] [µM] | IC50 ([1]; statement for all experimental carcinoma cell lines, read-out: IC50 values against human carcinoma cell lines) [µM] | Ave SI [1, 10] | IC50 [2] [µM] | IC50 [3] [µM] | IC50 [4] [µM] | HeLa SI [4] | IC50 [5] [µM] | THP-1 SI [5] | IC50 [6] [µM] | K562 SI [6] | IC50 [7] [µM] | A549 SI [7] | IC50 [8] [µM] | HePG2 SI [8] | SGC7901 SI [2]
Nc1cccc(/C=C2\CCC/C(=C\c3cccc(N)c3)C2=O)c1 [2a, (2E,6E)-2,6-bis(3-aminobenzylidene)cyclohexanone] | 13.7 | > 5 | 2.7 | 9.4 ± 0.2 | 28.2 ± 3.9 | 25.9 ± 3.7 | 1.1 | 6.2 ± 1.1 | 4.5 | 22.2 ± 1.9 | 1.3 | 7.9 ± 0.1 | 3.6 | 10.7 ± 0.5 | 2.6 | –
CN1C/C(=C\c2cccc(N)c2)C(=O)/C(=C/c2cccc(N)c2)C1 [2b, (3E,5E)-3,5-bis(3-aminobenzylidene)-1-methylpiperidin-4-one] | 4 | – | 5.2 | 4.2 ± 0.3 | 16.9 ± 0.2 | 4.4 ± 0.1 | 3.8 | 1.5 ± 0.1 | 11.5 | 4.3 ± 0.1 | 3.9 | 6.5 ± 0.1 | 2.6 | 3.1 ± 0.2 | 5.4 | 4.0
Nc1ccc(F)c(/C=C2\CNC/C(=C\c3cc(N)ccc3F)C2=O)c1 [2c] | 2.9 | – | 8.0 | 2.5 ± 0.8 | 18.8 ± 1.4 | 2.2 ± 0.1 | 8.7 | 1.4 ± 0.2 | 13.9 | 2 ± 0.1 | 9.3 | 3.4 ± 1.2 | 5.5 | 5.8 ± 0.2 | 3.2 | 7.4
CN1C/C(=C\c2cc(N)ccc2F)C(=O)/C(=C/c2cc(N)ccc2F)C1 [2d] | 3.7 | – | 6.5 | 3.8 ± 1.2 | 21.6 ± 2.8 | 3.1 ± 0.1 | 6.9 | 2.1 ± 1.1 | 10.3 | 3 ± 0.1 | 7.3 | 4.1 ± 1 | 5.4 | 6.2 ± 0.3 | 3.5 | 5.6
O=C1/C(=C/c2cccc(/N=C/c3ccccc3O)c2)CCC/C1=C\c1cccc(/N=C/c2ccccc2O)c1 [3a] | 6.1 | – | 4.9 | 11.4 ± 0.2 | 18.2 ± 0.2 | 9.9 ± 0.3 | 1.8 | 1.5 ± 0.1 | 12.4 | 3.4 ± 0.01 | 5.4 | 7.4 ± 0.3 | 2.5 | 3.3 ± 0.1 | 5.6 | 1.6
O=C1/C(=C/c2cccc(/N=C/c3cc(F)ccc3O)c2)CCC/C1=C\c1cccc(/N=C/c2cc(F)ccc2O)c1 [3b] | 4.3 | – | 5.5 | 2.7 ± 0.6 | 17.1 ± 0.1 | 8.9 ± 0.2 | 1.9 | 1.6 ± 0.1 | 10.5 | 3.4 ± 0.01 | 5.0 | 6.1 ± 0.4 | 2.8 | 2.8 ± 0.1 | 6.1 | 6.4
O=C1/C(=C/c2cccc(/N=C/c3cc(Br)ccc3O)c2)CCC/C1=C\c1cccc(/N=C/c2cc(Br)ccc2O)c1 [3c] | 10 | – | 1.4 | 5.2 ± 0.8 | 12 ± 0.1 | 11.4 ± 0.9 | 1.0 | 5.3 ± 0.01 | 2.3 | 14 ± 0.1 | 0.9 | 10.6 ± 1.1 | 1.1 | 13.7 ± 1.1 | 0.9 | 2.3
COc1ccc(/C=N/c2cccc(/C=C3\CCC/C(=C\c4cccc(/N=C/c5ccc(OC)cc5O)c4)C3=O)c2)c(O)c1 [3d] | 5.8 | – | 2.5 | 7.1 ± 1 | 11.3 ± 0.1 | 13.1 ± 1 | 0.9 | 3.2 ± 0.03 | 3.6 | 3.2 ± 0.02 | 3.6 | 4.1 ± 0.6 | 2.8 | 4 ± 0.1 | 2.9 | 1.6
COc1cc(Br)cc(/C=N/c2cccc(/C=C3\CCC/C(=C\c4cccc(/N=C/c5cc(Br)cc(OC)c5O)c4)C3=O)c2)c1O [3e] | 4.6 | – | 3.5 | 3 ± 0.8 | 11.3 ± 0.3 | 12.8 ± 0.9 | 0.9 | 3.3 ± 0.1 | 3.4 | 4.2 ± 0.1 | 2.7 | 2.5 ± 0.4 | 4.4 | 1.9 ± 0.01 | 6.0 | 3.8
CN1C/C(=C\c2cccc(/N=C/c3ccccc3O)c2)C(=O)/C(=C/c2cccc(/N=C/c3ccccc3O)c2)C1 [4a] | 4.3 | – | 4.2 | 8.3 ± 0.8 | 10.6 ± 0.1 | 6.3 ± 0.2 | 1.7 | 0.9 ± 0.1 | 12.0 | 2.8 ± 0.1 | 3.8 | 5.2 ± 0.4 | 2.1 | 2.59 ± 0.1 | 4.1 | 1.3
CN1C/C(=C\c2cccc(/N=C/c3cc(F)ccc3O)c2)C(=O)/C(=C/c2cccc(/N=C/c3cc(F)ccc3O)c2)C1 [4b] | 2.2 | – | 8.0 | 1.4 ± 0.2 | 13.8 ± 0.1 | 3.5 ± 0.1 | 4.0 | 1.2 ± 0.03 | 11.5 | 2.15 ± 1 | 6.4 | 4.1 ± 0.4 | 3.4 | 1.07 ± 0.1 | 12.9 | 10.0
CN1C/C(=C\c2cccc(/N=C/c3cc(Br)ccc3O)c2)C(=O)/C(=C/c2cccc(/N=C/c3cc(Br)ccc3O)c2)C1 [4c] | 4.8 | – | 3.2 | 3 ± 0.3 | 12.8 ± 0.2 | 4.7 ± 0.1 | 2.8 | 2.5 ± 0.2 | 5.1 | 6.2 ± 0.7 | 2.1 | 9 ± 0.8 | 1.4 | 3.54 ± 0.1 | 3.6 | 4.3
